{"source": "patent US20100209348A1", "about": "“METHODS FOR DETERMINING LIPOSOME BIOEQUIVALENCE” (Arondo Pharma, Inc., priority 2009, published 2010)", "origin": "cited, not measured here", "settings": "IV infusion up to 60 min, up to 60 mg/m^2 every 3 weeks (dose rate 20 mg/m^2/week)", "note": "Counter-ions that a name gives are not always drawn.", "data": [{"smiles": "COc1cccc2c1C(=O)c1c(O)c3c(c(O)c1C2=O)C[C@@](O)(C(=O)CO)C[C@@H]3O[C@H]1C[C@H](N)[C@H](O)[C@H](C)O1", "note": "[doxorubicin, Doxorubicin HCl]", "values": [{"measurement": "clinically significant PPE", "value": "does not typically cause clinically significant PPE"}]}]}
